Results taken from ChEMBL document CHEMBL5465560, “Selectivity Literature for EUbOPEN Chemogenomic Library” (2024).

Legend:
[1] = biological target: T1, Interleukin-1 receptor-associated kinase 4 (Homo sapiens) (UniProt Q9NWZ3); assay: Selectivity interaction (Kinase panel (literature)) EUB0001199aCl IRAK4; details: at 1 µM
T1 sequence (whole entry): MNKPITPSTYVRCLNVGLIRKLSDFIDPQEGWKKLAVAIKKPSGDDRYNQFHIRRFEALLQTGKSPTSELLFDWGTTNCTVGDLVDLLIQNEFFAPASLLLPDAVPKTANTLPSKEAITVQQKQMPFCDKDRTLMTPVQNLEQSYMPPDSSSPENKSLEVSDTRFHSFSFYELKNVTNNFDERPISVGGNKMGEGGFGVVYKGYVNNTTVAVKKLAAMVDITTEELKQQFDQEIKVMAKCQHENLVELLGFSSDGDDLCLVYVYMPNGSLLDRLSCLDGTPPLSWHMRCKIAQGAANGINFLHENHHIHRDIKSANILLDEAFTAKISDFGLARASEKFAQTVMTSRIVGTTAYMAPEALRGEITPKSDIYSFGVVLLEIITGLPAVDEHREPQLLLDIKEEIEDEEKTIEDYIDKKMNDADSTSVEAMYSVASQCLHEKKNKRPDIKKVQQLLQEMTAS

[2] = biological target: T2, Receptor-interacting serine/threonine-protein kinase 1 (Homo sapiens) (UniProt Q13546); assay: Selectivity interaction (KinomeScan (DiscoverX)) EUB0000607a RIPK1; details: at 10 µM
T2 sequence (whole entry): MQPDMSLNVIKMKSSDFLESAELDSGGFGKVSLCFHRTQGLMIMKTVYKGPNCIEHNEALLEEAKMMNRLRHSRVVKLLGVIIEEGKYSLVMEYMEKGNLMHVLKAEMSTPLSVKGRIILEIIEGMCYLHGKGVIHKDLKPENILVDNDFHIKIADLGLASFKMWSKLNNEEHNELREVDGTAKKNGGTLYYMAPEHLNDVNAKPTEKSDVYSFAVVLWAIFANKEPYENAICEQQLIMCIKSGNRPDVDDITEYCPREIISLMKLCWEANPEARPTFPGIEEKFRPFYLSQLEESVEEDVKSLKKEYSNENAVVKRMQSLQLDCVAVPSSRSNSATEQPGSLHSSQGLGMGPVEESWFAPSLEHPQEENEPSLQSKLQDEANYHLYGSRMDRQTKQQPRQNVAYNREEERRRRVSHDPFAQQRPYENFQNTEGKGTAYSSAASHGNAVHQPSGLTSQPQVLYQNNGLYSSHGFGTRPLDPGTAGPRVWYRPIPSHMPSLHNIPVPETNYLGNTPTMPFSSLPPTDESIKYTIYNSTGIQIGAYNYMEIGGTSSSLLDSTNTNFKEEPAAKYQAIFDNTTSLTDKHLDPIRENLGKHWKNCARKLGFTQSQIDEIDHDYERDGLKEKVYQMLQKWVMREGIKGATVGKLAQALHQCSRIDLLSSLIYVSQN

[3] = biological target: Dual specificity protein kinase CLK3 (Homo sapiens, UniProt P49761); details: at 10 µM
[4] = biological target: Tyrosine-protein kinase Fgr (Homo sapiens) (UniProt P09769); assay: Selectivity interaction (KinomeScan (DiscoverX)) EUB0001049a FGR; details: at 1 µM
[5] = biological target: Serine/threonine-protein kinase PAK 1 (Homo sapiens) (UniProt Q13153); assay: Selectivity interaction (KinomeScan (DiscoverX)) EUB0001049a PAK1; details: at 1 µM
[6] = biological target: Serine/threonine-protein kinase 38-like (Homo sapiens) (UniProt Q9Y2H1); assay: Selectivity interaction (KinomeScan (DiscoverX)) EUB0001049a STK38L; details: at 1 µM
[7] = biological target: T3, Mitogen-activated protein kinase 15 (Homo sapiens) (UniProt Q8TD08); assay: Selectivity interaction (KinomeScan (DiscoverX)) EUB0001049a MAPK15; details: at 1 µM
T3 sequence (whole entry): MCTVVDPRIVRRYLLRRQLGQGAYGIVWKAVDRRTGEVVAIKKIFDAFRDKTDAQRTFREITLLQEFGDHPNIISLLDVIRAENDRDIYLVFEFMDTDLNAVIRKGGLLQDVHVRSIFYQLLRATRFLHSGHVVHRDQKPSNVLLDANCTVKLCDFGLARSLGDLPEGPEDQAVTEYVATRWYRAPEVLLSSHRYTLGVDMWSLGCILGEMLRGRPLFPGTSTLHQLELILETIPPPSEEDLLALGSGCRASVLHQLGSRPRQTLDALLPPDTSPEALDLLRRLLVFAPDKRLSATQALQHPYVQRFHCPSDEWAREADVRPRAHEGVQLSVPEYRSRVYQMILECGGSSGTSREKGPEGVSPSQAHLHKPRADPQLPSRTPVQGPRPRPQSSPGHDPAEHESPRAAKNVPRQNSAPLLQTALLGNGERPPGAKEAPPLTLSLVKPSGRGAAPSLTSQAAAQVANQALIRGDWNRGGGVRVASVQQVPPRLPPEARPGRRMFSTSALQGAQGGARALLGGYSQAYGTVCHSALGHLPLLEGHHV

[8] = biological target: Tyrosine-protein kinase Lck (Homo sapiens, UniProt P06239); assay: Selectivity interaction (Panel of kinases, GPCRs, ion channels and transporters (enzymatic assay)) EUB0000223bCl LCK
[9] = biological target: Epithelial discoidin domain-containing receptor 1 (Homo sapiens) (UniProt Q08345); assay: Selectivity interaction (KinomeScan (DiscoverX)) EUB0000655a DDR1; details: at 10 µM
[10] = biological target: T4, Serine/threonine-protein kinase STK11 (Homo sapiens) (UniProt Q15831); assay: Selectivity interaction (KinomeScan (DiscoverX)) EUB0001079a STK11; details: at 1 µM
T4 sequence (whole entry): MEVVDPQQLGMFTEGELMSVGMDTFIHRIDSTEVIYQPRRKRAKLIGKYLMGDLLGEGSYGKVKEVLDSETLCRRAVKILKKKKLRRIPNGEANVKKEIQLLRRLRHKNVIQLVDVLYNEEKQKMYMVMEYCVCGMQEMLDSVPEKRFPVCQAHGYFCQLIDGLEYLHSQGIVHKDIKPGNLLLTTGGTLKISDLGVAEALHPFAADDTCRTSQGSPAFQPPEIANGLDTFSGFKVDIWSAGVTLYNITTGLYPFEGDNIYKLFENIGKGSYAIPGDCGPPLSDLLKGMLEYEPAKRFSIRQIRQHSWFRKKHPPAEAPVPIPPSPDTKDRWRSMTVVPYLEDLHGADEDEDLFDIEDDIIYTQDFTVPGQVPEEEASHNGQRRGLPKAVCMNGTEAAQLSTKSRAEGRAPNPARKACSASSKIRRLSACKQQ

[11] = system: Epidermal growth factor receptor (Homo sapiens), P00533 [UNDEFINED MUTATION]; assay: Selectivity interaction (KinomeScan (DiscoverX)) EUB0000229b EGFR; details: at 1 µM
[12] = biological target: Mitogen-activated protein kinase kinase kinase 1 (Homo sapiens, UniProt Q13233); details: at 10 µM
[13] = biological target: Tyrosine-protein kinase Fer (Homo sapiens) (UniProt P16591); assay: Selectivity interaction (ActivX KiNativ screen (ex vivo kinase selectivity in human PBMCs)) EUB0001619a FER; type: cell-based; details: PBMC, at 1 µM
Chain of Tyrosine-protein kinase Fer (Homo sapiens) (P16591 whole entry, looked up): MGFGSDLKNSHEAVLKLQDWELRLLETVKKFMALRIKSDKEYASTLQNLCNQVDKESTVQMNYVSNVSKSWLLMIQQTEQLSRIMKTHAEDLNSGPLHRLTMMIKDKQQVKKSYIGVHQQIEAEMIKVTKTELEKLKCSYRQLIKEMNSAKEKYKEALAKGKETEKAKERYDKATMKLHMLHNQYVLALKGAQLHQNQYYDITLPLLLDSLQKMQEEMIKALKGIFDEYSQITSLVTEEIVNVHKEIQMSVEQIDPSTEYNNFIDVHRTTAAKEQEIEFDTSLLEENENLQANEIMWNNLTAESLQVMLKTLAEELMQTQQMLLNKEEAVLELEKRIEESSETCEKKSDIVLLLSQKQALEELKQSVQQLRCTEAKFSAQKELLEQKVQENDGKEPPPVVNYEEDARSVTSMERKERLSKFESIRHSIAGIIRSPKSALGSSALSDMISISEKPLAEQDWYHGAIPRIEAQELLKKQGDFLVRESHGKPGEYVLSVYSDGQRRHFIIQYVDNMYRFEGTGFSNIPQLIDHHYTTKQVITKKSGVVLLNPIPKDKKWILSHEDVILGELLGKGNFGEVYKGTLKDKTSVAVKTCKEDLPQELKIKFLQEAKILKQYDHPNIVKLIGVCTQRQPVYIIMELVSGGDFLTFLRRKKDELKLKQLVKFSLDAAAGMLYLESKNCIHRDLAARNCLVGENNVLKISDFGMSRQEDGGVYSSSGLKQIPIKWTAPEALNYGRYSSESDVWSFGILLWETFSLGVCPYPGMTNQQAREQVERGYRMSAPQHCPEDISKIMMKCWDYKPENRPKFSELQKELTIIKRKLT

Chain of Mitogen-activated protein kinase kinase kinase 1 (Q13233 whole entry): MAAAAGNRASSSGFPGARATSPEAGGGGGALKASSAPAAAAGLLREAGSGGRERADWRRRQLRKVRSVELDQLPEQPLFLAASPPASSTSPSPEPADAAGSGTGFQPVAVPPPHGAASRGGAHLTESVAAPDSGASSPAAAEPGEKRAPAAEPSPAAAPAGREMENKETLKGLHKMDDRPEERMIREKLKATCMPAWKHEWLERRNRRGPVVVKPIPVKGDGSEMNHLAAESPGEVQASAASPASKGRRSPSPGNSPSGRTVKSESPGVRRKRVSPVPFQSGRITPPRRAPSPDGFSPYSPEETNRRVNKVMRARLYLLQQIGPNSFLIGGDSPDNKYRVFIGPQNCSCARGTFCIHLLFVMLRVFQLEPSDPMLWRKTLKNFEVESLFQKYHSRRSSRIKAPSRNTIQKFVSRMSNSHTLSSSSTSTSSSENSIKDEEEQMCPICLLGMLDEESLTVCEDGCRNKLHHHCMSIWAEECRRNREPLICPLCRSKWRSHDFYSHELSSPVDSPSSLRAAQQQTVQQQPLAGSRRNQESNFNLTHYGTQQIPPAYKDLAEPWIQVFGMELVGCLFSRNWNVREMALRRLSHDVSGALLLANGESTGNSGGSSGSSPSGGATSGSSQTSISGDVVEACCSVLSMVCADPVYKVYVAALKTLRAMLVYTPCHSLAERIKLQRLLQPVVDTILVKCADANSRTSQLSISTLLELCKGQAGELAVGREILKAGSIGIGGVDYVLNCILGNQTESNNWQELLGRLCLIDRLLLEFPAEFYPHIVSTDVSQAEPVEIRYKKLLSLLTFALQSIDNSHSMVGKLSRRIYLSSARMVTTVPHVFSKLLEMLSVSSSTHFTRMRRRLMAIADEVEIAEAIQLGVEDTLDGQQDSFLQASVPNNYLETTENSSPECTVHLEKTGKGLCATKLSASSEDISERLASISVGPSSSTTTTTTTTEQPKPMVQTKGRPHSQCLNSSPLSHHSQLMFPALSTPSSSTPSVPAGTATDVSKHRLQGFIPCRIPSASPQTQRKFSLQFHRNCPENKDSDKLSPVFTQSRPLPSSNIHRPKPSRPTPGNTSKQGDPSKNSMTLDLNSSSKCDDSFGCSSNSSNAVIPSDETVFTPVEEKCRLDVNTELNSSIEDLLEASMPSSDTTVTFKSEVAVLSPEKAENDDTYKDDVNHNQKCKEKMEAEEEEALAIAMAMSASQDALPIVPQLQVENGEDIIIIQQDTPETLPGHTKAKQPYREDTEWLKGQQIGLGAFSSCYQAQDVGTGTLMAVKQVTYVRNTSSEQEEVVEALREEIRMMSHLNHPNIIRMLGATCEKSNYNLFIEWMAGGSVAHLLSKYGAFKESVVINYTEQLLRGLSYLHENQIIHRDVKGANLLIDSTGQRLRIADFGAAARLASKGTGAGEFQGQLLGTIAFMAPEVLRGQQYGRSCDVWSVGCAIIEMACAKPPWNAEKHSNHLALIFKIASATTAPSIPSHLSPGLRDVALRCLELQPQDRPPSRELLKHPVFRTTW
Chain of Serine/threonine-protein kinase PAK 1 (Homo sapiens) (Q13153 whole entry): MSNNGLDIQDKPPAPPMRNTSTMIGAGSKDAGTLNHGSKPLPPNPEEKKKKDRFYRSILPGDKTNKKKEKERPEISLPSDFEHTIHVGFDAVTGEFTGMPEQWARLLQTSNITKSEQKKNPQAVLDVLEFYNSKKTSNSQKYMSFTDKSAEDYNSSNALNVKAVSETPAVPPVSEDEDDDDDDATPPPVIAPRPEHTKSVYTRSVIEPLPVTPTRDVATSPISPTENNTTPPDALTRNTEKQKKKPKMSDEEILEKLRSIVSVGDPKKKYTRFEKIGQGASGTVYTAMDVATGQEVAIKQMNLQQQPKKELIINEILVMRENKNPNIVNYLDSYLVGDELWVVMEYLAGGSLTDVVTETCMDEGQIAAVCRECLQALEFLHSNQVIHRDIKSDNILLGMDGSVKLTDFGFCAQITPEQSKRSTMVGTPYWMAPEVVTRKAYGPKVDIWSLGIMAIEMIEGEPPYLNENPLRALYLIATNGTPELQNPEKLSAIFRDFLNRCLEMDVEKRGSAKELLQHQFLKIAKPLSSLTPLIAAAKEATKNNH
Chain of Epithelial discoidin domain-containing receptor 1 (Homo sapiens) (Q08345 whole entry, the tested form may be a part): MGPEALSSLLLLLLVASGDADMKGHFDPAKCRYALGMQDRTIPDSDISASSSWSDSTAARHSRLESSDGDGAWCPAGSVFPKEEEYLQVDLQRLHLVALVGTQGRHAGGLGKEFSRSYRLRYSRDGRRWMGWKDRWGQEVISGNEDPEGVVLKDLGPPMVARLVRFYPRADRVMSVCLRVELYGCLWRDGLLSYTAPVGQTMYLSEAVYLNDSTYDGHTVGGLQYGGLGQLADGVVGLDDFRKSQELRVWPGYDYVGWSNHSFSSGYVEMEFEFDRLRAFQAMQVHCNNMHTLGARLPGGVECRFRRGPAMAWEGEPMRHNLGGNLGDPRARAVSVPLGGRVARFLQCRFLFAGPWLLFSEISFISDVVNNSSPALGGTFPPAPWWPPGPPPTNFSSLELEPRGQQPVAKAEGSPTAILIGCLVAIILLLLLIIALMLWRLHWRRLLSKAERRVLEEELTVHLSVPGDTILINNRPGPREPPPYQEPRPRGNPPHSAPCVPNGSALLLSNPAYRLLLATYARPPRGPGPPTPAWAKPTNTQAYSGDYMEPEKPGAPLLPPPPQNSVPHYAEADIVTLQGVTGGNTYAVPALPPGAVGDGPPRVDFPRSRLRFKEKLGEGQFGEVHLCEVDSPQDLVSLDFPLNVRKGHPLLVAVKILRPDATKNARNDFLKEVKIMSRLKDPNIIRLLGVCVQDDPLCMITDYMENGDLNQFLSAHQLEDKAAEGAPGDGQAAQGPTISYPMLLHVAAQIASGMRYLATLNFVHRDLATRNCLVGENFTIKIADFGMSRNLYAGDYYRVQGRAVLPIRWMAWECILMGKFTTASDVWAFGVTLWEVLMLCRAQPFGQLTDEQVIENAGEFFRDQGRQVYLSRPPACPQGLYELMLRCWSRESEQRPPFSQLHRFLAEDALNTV
Chain of Serine/threonine-protein kinase 38-like (Homo sapiens) (Q9Y2H1 2-464 limits assumed): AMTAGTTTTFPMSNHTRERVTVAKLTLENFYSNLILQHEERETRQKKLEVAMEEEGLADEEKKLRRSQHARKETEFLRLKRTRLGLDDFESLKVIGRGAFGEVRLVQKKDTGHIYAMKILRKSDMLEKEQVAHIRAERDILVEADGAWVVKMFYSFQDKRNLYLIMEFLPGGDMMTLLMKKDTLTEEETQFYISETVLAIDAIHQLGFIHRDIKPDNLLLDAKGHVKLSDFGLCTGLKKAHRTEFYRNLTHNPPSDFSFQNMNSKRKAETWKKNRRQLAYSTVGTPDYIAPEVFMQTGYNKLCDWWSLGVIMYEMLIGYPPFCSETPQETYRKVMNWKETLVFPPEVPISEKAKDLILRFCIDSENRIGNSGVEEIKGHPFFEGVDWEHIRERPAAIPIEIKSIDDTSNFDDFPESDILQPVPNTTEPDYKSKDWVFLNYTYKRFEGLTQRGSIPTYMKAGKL
Chain of Dual specificity protein kinase CLK3 (P49761 whole entry, looked up): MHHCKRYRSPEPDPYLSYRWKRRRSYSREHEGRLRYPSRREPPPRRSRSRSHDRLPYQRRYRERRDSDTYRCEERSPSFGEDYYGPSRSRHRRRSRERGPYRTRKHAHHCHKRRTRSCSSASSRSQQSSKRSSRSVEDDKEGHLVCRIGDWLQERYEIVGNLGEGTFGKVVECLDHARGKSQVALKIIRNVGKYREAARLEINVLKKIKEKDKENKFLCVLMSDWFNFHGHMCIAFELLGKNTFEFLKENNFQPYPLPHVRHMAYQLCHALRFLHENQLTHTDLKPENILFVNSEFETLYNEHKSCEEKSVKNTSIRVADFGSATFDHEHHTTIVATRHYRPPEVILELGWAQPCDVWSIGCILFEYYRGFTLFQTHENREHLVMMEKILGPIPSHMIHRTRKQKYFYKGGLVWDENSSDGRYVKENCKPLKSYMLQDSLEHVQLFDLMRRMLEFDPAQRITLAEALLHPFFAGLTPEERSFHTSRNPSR

CN1Cc2nccc(-c3cn(C)nc3-c3ccc(F)cc3)c2C1=O
% of inhibition [1]: -8%

CNC(=O)Nc1ccc(-c2nc(N3CC4CCC(C3)O4)c3cnn(C4CCC5(CC4)OCCO5)c3n2)cc1
% of control [2]: 83%

COCC(=O)NC/C=C/c1ccc2ncnc(Nc3ccc(Oc4ccc(C)nc4)c(C)c3)c2c1 [CP-724714]
% of control [3]: 100%

COc1cc(Nc2nc(C)cc(-c3cnn4nc(OC)ccc34)n2)cc(C(F)(F)F)c1
% of control [4]: 94% | % of control [5]: 86% | % of control [6]: 100% | % of control [7]: 96%

COc1cc(C(=O)N2CC[C@@H](O)[C@@H](N)C2)cc2nc(-c3cc4ccccc4n3CC3CC3)n(C)c12
pXC50 [8]: < 4.5 M

CN(C)CCOc1ccc(-c2nc(-c3ccncc3)c(-c3ccc4c(c3)CC/C4=N\O)[nH]2)cc1
% of control [9]: 43%

Nc1cnc(N2CCc3cc(S(=O)(=O)Nc4c(F)cc(Cl)cc4F)cc(N4CCCC4=O)c32)nc1 [TP-020n]
% of control [10]: 100%

COc1cc(N(C)c2ccnc3ccc(C(F)(F)F)cc23)cc(OC)c1OC
% binding [11]: 95%

Cc1cc([C@@H](C)Nc2ccccc2C(=O)O)c2nc(N3CCOCC3)cc(=O)n2c1 [AZD-6482]
% of control [12]: 90%

N#Cc1cccc(-c2c[nH]c3ncnc(N4CCOCC4)c23)c1
% of inhibition [13]: 2%
